The source of these data is PMC6480586, “Intestinal Permeability Study of Clinically Relevant Formulations of Silibinin in Caco-2 Cell Monolayers” (International Journal of Molecular Sciences, 2019).

The nature of series [1]: Caco-2 cell monolayer transport (permeability) study. The conditions noted are these: human, formulations at 200 µg/mL in HBSS/0.6% DMSO, pH 7.4, 37 °C, up to 120 min, n = 6; for Papp A→B at 120 min, 200 µg/mL: apical to basolateral. The series is classed as in vitro ADME. On the procedure:
Caco-2 cells were seeded at a density of 1 × 10^5 onto Transwell 6-well inserts with a polyethylene terephthalate membrane (0.4 µm pore size; BD Falcon) and were maintained at 37 °C under 90% humidity and 5% CO2. The medium was replaced every two to three days for both the AP and BL chambers. Cell monolayers were used 19–21 days after seeding, once confluence and differentiation were achieved. The integrity of each cell monolayer was assessed by measuring the TEER before and after the experiments with an epithelial voltammeter (Millicell-ERS). Permeability studies were performed by adding the silibinin formulations at 200 µg/mL in HBSS/0.6% DMSO (stocks were prepared at 30 mg/mL in 100% DMSO) and, in parallel, standard silibinin at different concentrations (10, 20, 50, 100, 150, 200, and 300 µmol/L).
The transport experiment was initiated by removing the culture medium from the AP and BL chambers. The Caco-2 monolayers were washed twice with pre-warmed HBSS (pH 7.4) and incubated with the same solution at 37 °C for 30 min. […]
Transport studies were performed from apical-to-basolateral (AP–BL) and basolateral-to-apical (BL–AP) chambers. The apparent permeability (Papp) values for each compound were calculated according to the following equation: Papp=dQ/dt·1/A·C0·60 where Papp is the apparent permeability (cm/s), dQ/dt is the steady-state flux, A is the diffusion area of the monolayers (cm^2), C0 is the initial concentration of the drug in the donor compartment (µM), and 60 is a conversion factor [49].
The efflux ratio was calculated to determine the absorption mechanism such as the ratio of Papp (BL–AP) […] Papp (AP–BL).
Analyses were performed using an Agilent LC 1100 series HPLC system (Agilent Technologies, Inc., Palo Alto, CA) controlled by Chemstation software, equipped with a pump, autosampler, column oven, and UV–VIS diode array detector (wavelength selected at 280 nm to detect silibinin). […] A calibration graph for the quantitative evaluation of silibinin was performed using a six-point regression curve (r^2 > 0.999).
(In general: Caco-2 cells form a polarised layer with tight junctions and transporters.)

The conditions of series [2]: cited from earlier work.

The structures appear in SMILES notation. Bounds are passed on as bounds.

`COCCc1ccc(OCC(O)CNC(C)C)cc1` (centres unmarked) [metroprolol, metoprolol]: the Papp A→B (as a rule, the apparent permeability from the apical to the basolateral side of a cell layer) at 120 min, 200 µg/mL in series [1] was 60 ×10⁻⁶ cm/s.

`COc1cc(C2Oc3cc([C@H]4Oc5cc(O)cc(O)c5C(=O)[C@@H]4O)ccc3OC2CO)ccc1O` (some centres unmarked) [silibinin] had a Papp A→B at 120 min, 200 µg/mL in series [1] of 3.2 ×10⁻⁶ cm/s. Further, the apparent permeability from basolateral to apical (Papp B→A) – broadly, how fast a substance crosses the layer from the basolateral side – at 120 min, 200 µg/mL in series [1] (basolateral to apical) stood at 6.28 ×10⁻⁶ cm/s. In addition, the “Solubility in polar aprotic solvents” value in series [2] (e.g., acetone, DMF, THF) is recorded as “soluble”. The “Solubility in non-polar solvents” value in series [2] (e.g., chloroform and petroleum ether) is on record as “insoluble”. Besides, the “Solubility in polar protic solvents” value in series [2] (e.g., ethanol and methanol) was “poorly soluble”. Further, in series [2] (water), the “Solubility in water” value is “very poor solubility in water” and the Water solubility is < 40 µg/mL.
